Data taken from ChEMBL document CHEMBL3045219, “Molecular modeling studies, synthesis and biological evaluation of derivatives of N-phenylbenzamide as Plasmodium falciparum dihydroorotate dehydrogenase (PfDHODH) inhibitors” (Med Chem Res, 2011).

test system: Plasmodium falciparum; assay: Antiplasmodial activity against Plasmodium falciparum assessed as inhibition of [3H]hypoxanthine incorporation; assay type: functional, organism-based

Row | SMILES | IC50
1 | O=C(Nc1ccc(F)c(Cl)c1)c1ccccc1 | 5.7 µM
2 | Cc1ccc(NC(=O)c2ccccc2)cc1 | > 10 µM
3 | O=C(Nc1ccc([N+](=O)[O-])cc1)c1ccccc1 | > 10 µM
4 | O=C(Nc1ccccc1Cl)c1ccccc1 | > 10 µM
5 | O=C(Nc1cccc([N+](=O)[O-])c1)c1ccccc1 | > 10 µM
6 | O=C(Nc1cccc(Cl)c1)c1ccccc1 | 8.7 µM
7 | O=C(Nc1ccccc1[N+](=O)[O-])c1ccccc1 | > 10 µM
8 | O=C(Nc1ccc(Cl)cc1)c1ccccc1 | > 10 µM
9 | O=C(Nc1cccc(Cl)c1Cl)c1ccccc1 | > 10 µM
10 | O=C(Nc1ccc(Cl)cc1Cl)c1ccccc1 | > 10 µM
11 | Cc1cccc(NC(=O)c2ccccc2)c1 | > 10 µM
12 | COc1ccc(NC(=O)c2ccccc2)cc1Cl | > 10 µM
13 | O=C(Nc1ccc(Br)cc1)c1ccccc1 | > 10 µM
14 | C[C@H]1[C@H](OC(=O)CCC(=O)O)O[C@@H]2O[C@@]3(C)CC[C@H]4[C@H](C)CC[C@@H]1[C@@]24OO3 [ARTESUNATE] | 0.017 µM
15 | Cc1ccccc1NC(=O)c1ccccc1 [N-O-TOLYLBENZAMIDE] | > 10 µM
16 | O=C(Nc1ccccc1)c1ccccc1 [N-PHENYLBENZAMIDE] | > 10 µM

target: T1, Dihydroorotate dehydrogenase (Plasmodium falciparum, UniProt Q54A96); assay: Inhibition of Plasmodium falciparum HIs6-tagged DHODH expressed in Escherichia coli DH5alpha using L-dihydroorotate as substrate by DCIP-based spectrophotometric analysis
T1 sequence (Q54A96 whole entry): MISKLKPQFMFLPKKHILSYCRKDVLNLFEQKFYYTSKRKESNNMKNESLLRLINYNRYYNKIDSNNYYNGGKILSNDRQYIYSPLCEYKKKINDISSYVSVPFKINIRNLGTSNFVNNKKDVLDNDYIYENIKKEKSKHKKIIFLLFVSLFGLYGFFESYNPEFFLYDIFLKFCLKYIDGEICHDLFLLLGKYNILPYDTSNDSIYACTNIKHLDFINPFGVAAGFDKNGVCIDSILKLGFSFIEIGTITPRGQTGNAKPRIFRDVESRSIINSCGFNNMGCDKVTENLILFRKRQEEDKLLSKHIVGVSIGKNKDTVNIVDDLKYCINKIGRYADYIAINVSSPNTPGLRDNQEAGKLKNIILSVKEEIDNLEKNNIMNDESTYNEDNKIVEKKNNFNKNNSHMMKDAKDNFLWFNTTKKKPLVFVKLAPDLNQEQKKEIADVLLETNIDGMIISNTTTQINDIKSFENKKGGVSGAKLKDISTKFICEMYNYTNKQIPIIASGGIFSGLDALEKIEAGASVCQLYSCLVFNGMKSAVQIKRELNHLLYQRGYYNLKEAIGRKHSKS

Row | SMILES | IC50
17 | O=C(Nc1ccccc1C(F)(F)F)Nc1cccc2ccccc12 | 0.2 µM
18 | Cc1ccc(NC(=O)/C(C#N)=C(\O)C2CC2)cc1 | 871 µM
19 | N#C/C(C(=O)Nc1ccc(C#N)cc1)=C(/O)C1CC1 | 708 µM
20 | N#C/C(C(=O)Nc1ccc(C(F)(F)F)cc1)=C(/O)C1CC1 | 1070 µM
21 | Cc1c(C(=O)Nc2cc(Cl)cc(Cl)c2)cccc1[N+](=O)[O-] | 0.151 µM
22 | O=C(Nc1ccc(Cl)cc1Cl)c1ccc2ccccc2c1 | 0.1 µM
23 | Cc1ccc(NC(=O)c2ccc3ccccc3c2)c(Cl)c1 | 0.151 µM
24 | O=C(Nc1ccccc1F)c1ccc2ccccc2c1 | 0.251 µM
25 | Cc1c(C(=O)Nc2cccc(Br)c2)cccc1[N+](=O)[O-] | 0.1 µM
26 | Cc1c(C(=O)Nc2ccc(F)c(F)c2)cccc1[N+](=O)[O-] | 0.151 µM
27 | Cc1c(C(=O)Nc2cccc3ccccc23)cccc1[N+](=O)[O-] | 0.1 µM
28 | Cc1c(C(=O)Nc2ccc(Cl)c(Cl)c2)cccc1[N+](=O)[O-] | 0.251 µM
29 | Cc1cccc(NC(=O)c2cccc([N+](=O)[O-])c2C)c1 | 0.302 µM
30 | COc1ccccc1NC(=O)Nc1cccc2ccccc12 | 0.251 µM
31 | O=C(Nc1ccc(Cl)cc1)Nc1cccc2cccnc12 | 0.55 µM
32 | N#C/C(C(=O)Nc1ccc([N+](=O)[O-])cc1)=C(/O)C1CC1 | 537 µM
